Here are results for five molecules from publication PMC7305236, “The atypical chemokine receptor ACKR3/CXCR7 is a broad-spectrum scavenger for opioid peptides” (Nature Communications, 2020).

Read-outs that look alike come from different tables or passages of the source.

Design in all cases: dose or concentration left out as unconfirmed
The target of one experiment is T1, CXCR4 (Homo sapiens, UniProt P61073).
T1 construct: expressed in transfected cells; host or cells: U87, transient cotransfection of pNBe vectors
T1 sequence (P61073 whole entry): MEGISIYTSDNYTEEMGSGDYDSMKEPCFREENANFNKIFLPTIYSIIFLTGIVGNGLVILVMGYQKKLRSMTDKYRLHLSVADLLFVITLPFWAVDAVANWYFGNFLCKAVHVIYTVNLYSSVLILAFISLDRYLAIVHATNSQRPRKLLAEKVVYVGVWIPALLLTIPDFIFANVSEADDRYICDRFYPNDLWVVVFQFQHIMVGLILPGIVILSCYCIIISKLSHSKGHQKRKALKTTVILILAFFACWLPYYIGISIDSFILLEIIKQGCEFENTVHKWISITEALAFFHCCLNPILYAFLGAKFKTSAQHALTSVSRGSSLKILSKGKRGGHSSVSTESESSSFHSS
Description: cell-based. The settings on record: Figure S2a, read-out: CXCR4 activity, ctrl+ = 100.

The target of a further experiment is T2, CXCR3A (Homo sapiens, UniProt P49682).
T2 construct: expressed in transfected cells; host or cells: U87 cells
T2 sequence (P49682 1-368): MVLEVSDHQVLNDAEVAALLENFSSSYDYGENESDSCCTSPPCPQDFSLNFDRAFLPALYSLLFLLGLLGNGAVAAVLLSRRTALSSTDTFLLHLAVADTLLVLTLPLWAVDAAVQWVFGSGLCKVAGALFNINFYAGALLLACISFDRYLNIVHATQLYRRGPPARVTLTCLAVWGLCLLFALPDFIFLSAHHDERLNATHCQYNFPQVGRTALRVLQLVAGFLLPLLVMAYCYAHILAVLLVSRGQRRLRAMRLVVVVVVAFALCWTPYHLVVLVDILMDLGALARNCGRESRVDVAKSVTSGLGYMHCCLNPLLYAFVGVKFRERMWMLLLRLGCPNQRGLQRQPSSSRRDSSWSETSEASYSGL
Nature of the experiment: Figure S2a opioid peptide screen on chemokine receptors. The class given is cell-based.

A further experiment concerns the target T3, CCR5 (Homo sapiens, UniProt P51681).
T3 construct: expressed in transfected cells
The experiment is described as above. The class given is cell-based.

Another experiment has as its target T4, ACKR4 (Homo sapiens, UniProt Q9NPB9).
T4 sequence (Q9NPB9 1-350): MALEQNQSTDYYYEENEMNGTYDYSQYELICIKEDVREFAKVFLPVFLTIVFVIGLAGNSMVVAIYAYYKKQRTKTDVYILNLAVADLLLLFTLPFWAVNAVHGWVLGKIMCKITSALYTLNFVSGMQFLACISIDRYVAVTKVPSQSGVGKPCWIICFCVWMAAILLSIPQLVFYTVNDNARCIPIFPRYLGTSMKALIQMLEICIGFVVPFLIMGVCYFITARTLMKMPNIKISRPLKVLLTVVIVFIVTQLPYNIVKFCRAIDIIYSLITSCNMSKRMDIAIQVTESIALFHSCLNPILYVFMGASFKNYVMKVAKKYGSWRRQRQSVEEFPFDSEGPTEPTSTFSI
Described as above. To be noted: read-out: ACKR4 activity, ctrl+ = 100, Figure S2a.

The next experiment concerns the target T5, CCR10 (Homo sapiens, UniProt P46092).
T5 construct: expressed in transfected cells
T5 sequence (P46092 1-362): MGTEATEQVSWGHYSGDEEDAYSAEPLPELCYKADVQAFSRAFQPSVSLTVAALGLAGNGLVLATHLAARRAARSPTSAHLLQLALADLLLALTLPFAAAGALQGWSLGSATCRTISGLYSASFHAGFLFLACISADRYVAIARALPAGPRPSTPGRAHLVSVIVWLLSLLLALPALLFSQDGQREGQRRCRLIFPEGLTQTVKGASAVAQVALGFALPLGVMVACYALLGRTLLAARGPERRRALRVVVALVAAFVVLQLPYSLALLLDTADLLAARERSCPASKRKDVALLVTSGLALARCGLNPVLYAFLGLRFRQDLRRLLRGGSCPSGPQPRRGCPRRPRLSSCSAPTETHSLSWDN
The description is as above. The class given is cell-based.

For another experiment, the target named is ACKR3 (Homo sapiens, UniProt P25106). Nature of the experiment: cell-based. The settings on record: read-out: ACKR3 activity, ctrl+ = 100, Figure S2a.
Sequence of ACKR3 (P25106 whole entry): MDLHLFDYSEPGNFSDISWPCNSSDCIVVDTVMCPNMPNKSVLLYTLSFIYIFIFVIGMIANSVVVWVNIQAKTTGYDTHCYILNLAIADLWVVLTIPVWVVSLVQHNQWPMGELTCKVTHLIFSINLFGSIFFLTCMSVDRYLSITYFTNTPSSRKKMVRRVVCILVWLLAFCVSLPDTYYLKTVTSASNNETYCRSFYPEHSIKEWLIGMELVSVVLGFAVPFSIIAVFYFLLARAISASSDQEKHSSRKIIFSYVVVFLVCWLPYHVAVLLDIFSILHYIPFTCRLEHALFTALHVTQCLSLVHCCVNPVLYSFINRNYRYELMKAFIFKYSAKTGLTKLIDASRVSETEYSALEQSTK
For another experiment, the target named is T6, XCR1 (Homo sapiens, UniProt P46094).
T6 construct: expressed in transfected cells
T6 sequence (P46094 1-333): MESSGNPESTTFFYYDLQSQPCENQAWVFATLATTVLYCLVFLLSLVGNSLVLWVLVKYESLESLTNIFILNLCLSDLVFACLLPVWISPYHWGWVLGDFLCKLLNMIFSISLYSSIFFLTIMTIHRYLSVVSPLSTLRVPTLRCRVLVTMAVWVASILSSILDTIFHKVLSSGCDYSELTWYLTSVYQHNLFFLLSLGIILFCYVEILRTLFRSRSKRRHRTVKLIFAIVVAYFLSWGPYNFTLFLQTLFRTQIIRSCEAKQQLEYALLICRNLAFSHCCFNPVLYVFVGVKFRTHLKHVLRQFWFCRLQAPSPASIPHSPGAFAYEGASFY
Description: Figure S2a opioid peptide screen on chemokine receptors. The class given is cell-based.

Setting [1] is: replicate 1, read-out: CXCR3A activity, ctrl+ = 100.
[2] abbreviates: replicate 2, read-out: CXCR3A activity, ctrl+ = 100.
Where [3] appears, read: replicate 3, read-out: CXCR3A activity, ctrl+ = 100.
[4] abbreviates: replicate 1, read-out: CCR5 activity, ctrl+ = 100.
[5] abbreviates: replicate 2, read-out: CCR5 activity, ctrl+ = 100.
Setting [6] is: replicate 3, read-out: CCR5 activity, ctrl+ = 100.
The mark [7] stands for this setting: replicate 1, read-out: CCR10 activity, ctrl+ = 100.
The mark [8] stands for this setting: replicate 2, read-out: CCR10 activity, ctrl+ = 100.
Where [9] appears, read: replicate 3, read-out: CCR10 activity, ctrl+ = 100.
The mark [10] stands for this setting: replicate 1, read-out: XCR1 activity, ctrl+ = 100.
[11] abbreviates: replicate 2, read-out: XCR1 activity, ctrl+ = 100.
The mark [12] stands for this setting: replicate 3, read-out: XCR1 activity, ctrl+ = 100.

T3 sequence (P51681 whole entry): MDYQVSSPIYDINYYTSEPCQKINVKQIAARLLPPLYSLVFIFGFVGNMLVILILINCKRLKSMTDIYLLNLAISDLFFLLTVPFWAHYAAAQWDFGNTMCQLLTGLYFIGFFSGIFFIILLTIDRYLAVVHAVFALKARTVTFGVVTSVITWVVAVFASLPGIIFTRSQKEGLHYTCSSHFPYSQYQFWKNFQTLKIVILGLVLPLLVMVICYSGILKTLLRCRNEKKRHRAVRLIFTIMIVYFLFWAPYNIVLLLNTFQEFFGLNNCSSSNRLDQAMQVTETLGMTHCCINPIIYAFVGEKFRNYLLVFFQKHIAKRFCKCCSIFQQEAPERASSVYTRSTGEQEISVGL

Turning to `C[C@H](NC(=O)CNC(=O)[C@@H](NC(=O)[C@H](Cc1ccccc1)NC(=O)CNC(=O)CNC(=O)[C@@H](N)Cc1ccccc1)[C@@H](C)O)C(=O)N[C@@H](CCCNC(=N)N)C(=O)N[C@@H](CCCCN)C(=O)N[C@@H](CO)C(=O)N[C@@H](C)C(=O)N[C@@H](CCCNC(=N)N)C(=O)N[C@@H](CCCCN)C(N)=O` [Nociceptin 1-13], the activation at CXCR4 (replicate 1) is 20.2%; at CXCR4 (replicate 2) it was -3.76%; at CXCR4 (replicate 3), 28.2%; at CXCR3A (setting [1]), -0.431%; on CXCR3A (setting [2]), -4.46%; on CXCR3A (setting [3]), -5.38%. Further, the activation at CCR5 (setting [4]) is -0.291%; on CCR5 (setting [5]) it was -0.592%; at CCR5 (setting [6]) it was 0.907%; at ACKR4 (replicate 1), -3.36%; on ACKR4 (replicate 2) it was -5.01%; at ACKR4 (replicate 3), 1.05%. Further, the activation on CCR10 (setting [7]) is 2.26%; at CCR10 (setting [8]) it was -5.16%; at CCR10 (setting [9]), 3.57%; on ACKR3 (replicate 1), 19.7%; on ACKR3 (replicate 2), 20.3%; on ACKR3 (replicate 3), 51.3%. Further, the activation at XCR1 (setting [10]) was 2.91%; at XCR1 (setting [11]), 3.06%; on XCR1 (setting [12]), 4.45%.

With `CSCC[C@H](NC(=O)[C@H](Cc1ccccc1)NC(=O)CNC(=O)CNC(=O)[C@@H](N)Cc1ccc(O)cc1)C(=O)N[C@@H](CCCNC(=N)N)C(=O)N[C@@H](CCCNC(=N)N)C(=O)N[C@H](C(N)=O)C(C)C` [Adrenorphin], the activation was -0.233% at CXCR4 (replicate 1); 14% on CXCR4 (replicate 2); 3.91% at CXCR4 (replicate 3); -0.787% at CXCR3A (setting [1]); 0.214% at CXCR3A (setting [2]); 3.64% at CXCR3A (setting [3]). Further, the activation on CCR5 (setting [4]) was 0.166%; at CCR5 (setting [5]), -0.467%; on CCR5 (setting [6]) it was -0.49%; on ACKR4 (replicate 1) it was -1.94%; on ACKR4 (replicate 2), -1.88%; on ACKR4 (replicate 3), -0.895%. In addition, the activation on CCR10 (setting [7]) was 1.18%; at CCR10 (setting [8]), -7.52%; at CCR10 (setting [9]) it was -2%; at ACKR3 (replicate 1), 111%; at ACKR3 (replicate 2), 55.3%; on ACKR3 (replicate 3) it was 84.5%. For the same molecule, the activation was -2.07% on XCR1 (setting [10]), 2.59% on XCR1 (setting [11]) and 12.1% at XCR1 (setting [12]).

Regarding `CC[C@H](C)[C@H](NC(=O)[C@H](CCCNC(=N)N)NC(=O)[C@H](CCCNC(=N)N)NC(=O)[C@H](CC(C)C)NC(=O)[C@H](Cc1ccccc1)NC(=O)CNC(=O)CNC(=O)[C@@H](N)Cc1ccc(O)cc1)C(=O)N[C@@H](CCCNC(=N)N)C(=O)N1CCC[C@H]1C(=O)N[C@@H](CCCCN)C(=O)N[C@@H](CC(C)C)C(=O)N[C@@H](CCCCN)C(=O)O` [Dynorphin 1-13], the activation was 13.2% on CXCR4 (replicate 1); -40.8% at CXCR4 (replicate 2); -2.15% at CXCR3A (setting [1]); -8.16% on CXCR3A (setting [2]); -0.272% on CCR5 (setting [4]); -1.44% on CCR5 (setting [5]). The activation at ACKR4 (replicate 1) is -2%; on ACKR4 (replicate 2), -4.85%; at CCR10 (setting [7]), -2.25%; on CCR10 (setting [8]) it was -4.52%; at ACKR3 (replicate 1), 136%; on ACKR3 (replicate 2), 52.9%. Also, the activation was -1.76% at XCR1 (setting [10]) and -0.309% at XCR1 (setting [11]).

With `NC(=O)[C@H](Cc1ccccc1)NC(=O)[C@H](Cc1c[nH]c2ccccc12)NC(=O)[C@@H]1CCCN1C(=O)[C@@H](N)Cc1ccc(O)cc1` [Endomorphin-1], the activation on CXCR4 (replicate 1) was 36.3%; on CXCR4 (replicate 2), 16.8%; at CXCR3A (setting [1]) it was 3.34%; at CXCR3A (setting [2]), -3.63%; at CCR5 (setting [4]), 0.726%; at CCR5 (setting [5]), -0.866%. Moreover, the activation is 3.4% at ACKR4 (replicate 1); 1.77% on ACKR4 (replicate 2); -5.29% on CCR10 (setting [7]); 7.53% at CCR10 (setting [8]); 5.29% at ACKR3 (replicate 1); 17% on ACKR3 (replicate 2). The activation on XCR1 (setting [10]) worked out at 4.23%; on XCR1 (setting [11]), 6.11%.

Turning to `CC[C@H](C)[C@H](NC(=O)[C@H](CCCNC(=N)N)NC(=O)[C@H](CCCNC(=N)N)NC(=O)[C@H](CC(C)C)NC(=O)[C@H](Cc1ccccc1)NC(=O)CNC(=O)CN)C(=O)N[C@@H](CCCNC(=N)N)C(=O)N1CCC[C@H]1C(=O)N[C@@H](CCCCN)C(=O)N[C@@H](CC(C)C)C(=O)N[C@@H](CCCCN)C(=O)N[C@@H](Cc1c[nH]c2ccccc12)C(=O)N[C@@H](CC(=O)O)C(=O)N[C@@H](CC(N)=O)C(=O)N[C@@H](CCC(N)=O)C(=O)O` [Dynorphin 2-17], the activation was -9.77% at CXCR4 (replicate 1); -26.7% on CXCR4 (replicate 2); -4.16% at CXCR3A (setting [1]); -10.2% on CXCR3A (setting [2]); 1.32% on CCR5 (setting [4]); -2.11% at CCR5 (setting [5]). Besides, the activation was -1.91% on ACKR4 (replicate 1); -4.71% at ACKR4 (replicate 2); 0.214% at CCR10 (setting [7]); -5.55% on CCR10 (setting [8]); 72.7% on ACKR3 (replicate 1); 26.1% at ACKR3 (replicate 2). Moreover, the values for the activation on XCR1 (setting [10]) and on XCR1 (setting [11]) were 3.87% and -3.46%, respectively.
